Laboratory results as given in the NIST ThermoML archive (doi:10.1021/acs.jced.8b00124).
Numbers after ± are expanded uncertainties.

Experiments:
[1] = Crystal; DTA
[2] = Molar enthalpy of transition or fusion; settings: Crystal; DSC

Structure (SMILES): Cc1cc(C)nc(Nc2ccccc2)n1 [2-anilino-4,6-dimethylpyrimidine]
- Normal melting temperature [1]: 96.14 ± 1.1 °C
- Molar enthalpy of transition or fusion [2]: 6.08 ± 0.263 kcal/mol
